Experimental data taken from patent US11001591B2, “TRAF 6 inhibitors” (HELMHOLTZ ZENTRUM MUENCHEN—DEUTSCHES FORSCHUNGSZENTRUM FÜR …, priority 2016, dated 2021).

Columns and labels:
[1] = biological target: T1, TRAF6 (Homo sapiens, UniProt Q9Y4K3); assay: In vitro ubiquitination assay (Western blot), TRAF6 with Ubc13/Uev1a; format: biochemical
T1 construct: made in house
Procedure: The ability of TRAF6 to form K63-linked poly-ubiquitin chains in conjunction with Ubc13 was analyzed after compound treatment. Therefore, untagged TRAF6WT and TRAF6D57K, respectively were recombinantly purified. 0.125 μM of TRAF6 protein was pre-incubated with DMSO or compound in a total volume of 100 μL in K63 assay buffer (25 nM Tris-HCl pH 7.6; 250 nM MgCL2; […] creatine phosphate; 0.3 U/mL inorganic pyrophosphatase; 0.3 U/mL creatine phosphokinase) for 30 minutes at room temperature. Small aliquots for input samples were taken. A master mix containing 0.01 μM E1-activating enzyme (UBE1) (Boston Biochem), 0.2 μM E2-conjugating enzyme complex (Ubc13/Uev1a) (Boston Biochem), 1 mM ZnCl2, 2 mM ATP und 4 μM mono-ubiquitin (Boston Biochem) was added to the TRAF6 protein and the reaction mixture was incubated for 120 minutes at 37° C. The reaction was stopped by adding 4×SDS loading buffer and boiling at 95° C. for 5 minutes. The input samples were analyzed using the Pierce Silver Stain Kit (Thermo Fisher Scientific). Ubiquitination was detected in Western Blot analysis using an ubiquitin antibody.

[2] = system: 24 different Ubiquitin reaction cascades; assay: Ubiquitin Profiler (Eurofins); format: biochemical; conditions: 30 μM compound
Procedure: C25-140 was sent to Eurofins Pharma Discovery Services UK to perform a Single Point Ubiquitin Profiler testing of C25-140 effect at a concentration of 30 μM on 24 different Ubiquitin reaction cascades employing distinct combinations of E2, E3 and substrate. Each reaction was measured in duplicates. Cascade activity is expressed as a percentage of the mean cascade activity in the positive control samples. The positive control value is considered to be 100%, and all test samples are referred to this value.

[3] = system: MEF, HepG2 and Jurkat cells; assay: Cell viability, CellTiter-Glo 2.0; format: cell-based
Procedure: For cell viability experiments using the CellTiter-Glo® 2.0 system (Promega), MEF cells (1.2×10^3 cells/well), HepG2 cells (4×10^3 cells/well) and Jurkat T-cells (5×10^3 cells/well) were seeded in 384 well plates. After 18 hours, cells were treated with compounds using the Sciclone G3 automation system. After 6 or 24 hours incubation, the luciferase measurement was performed according to the manufacturer's manual.

[4] = system: ICAM-1 and A20; assay: mRNA expression of NF-κB target genes in MEF cells; format: cell-based, mouse
Procedure: (§1) For MEF cells, 1.2×10^5 cells per sample were seeded, treated with compound for 6 hours and stimulated with either IL-1β or TNFα for 60 minutes. Jurkat T-cells and primary mouse CD4^+ T-cells were seeded at 2×10^5 cells per sample, also treated with compound for 6 hours and stimulated with PMA/lonomycin for 3 hours. RNA was isolated according to the manufacturer's protocol of the Qiagen RNeasy Kit (MEF cells) or the STRATEC INVITRAP® SPIN UNIVERSAL RNA MINI KIT (Jurkat T-cells). The isolation of mRNA from […] white adipose tissue from DIO mice was performed using TRIzol® Reagent according to manufacturer's instruction. To clear the isolated RNA from genomic DNA, samples (up to 5 μg RNA) were treated with RQ1 RNase-Free DNaseI (Promega) as described in the technical manual. For the reverse transcription of RNA into cDNA, the DNaseI digested RNA samples were processed using the SuperScript III First Strand cDNA Synthesis System (Invitrogen/ThermoFisher Scientific) following the manufacturer's protocol. […] For quantification of cDNA in the samples, the LightCylcer480 (Roche) and the KAPA SYBR FAST qPCR Kit were used. For relative quantification, the ΔΔCp method first described by Pfaffl (Pfaffl, M. W., A new mathematical model for relative quantification in real-time RT-PCR. Nucleic Acids Res, 2001. 29(9): p. e45) was applied.

[5] = system: IL-2 and TNFα; assay: mRNA expression of TCR target genes in Jurkat T-cells; format: cell-based, human; conditions: PMA/Ionomycin
Procedure: as §1

[6] = system: Caco-2 layer; assay: Caco-2 assay; format: in vitro ADME
Procedure: All ADME (plasma stability, plasma protein binding, microsomal stability, Log D, Caco-2 assay, CYP450 inhibition and hERG predictor assay) as well as pharmacokinetic studies (Tmax, Cmax, AUC0-240 min, Mean Residence Time, Elimination half life, Elimination rate constant, Volume of Distribution and Clearance) of C25-140 (compound 3) were conducted by Bienta Enamine Biology Services of Bienta/Enamine Ltd.

[7] = system: 87 primary molecular targets; assay: SafetyScreen87 (Eurofins Cerep Panlabs); format: binding; conditions: 10 μM
Procedure: The SafetyScreen87, a total of 87 assays, was carried out at Eurofins Cerep Panlabs. 87 primary molecular targets including 13 enzyme assays (kinases and non-kinase enzymes) and 74 binding assays (nuclear receptors, GPCRs, transporters and ion channels) were performed at a compound concentration of 10 μM C25-140. Each of the 87 assay reactions was performed at the optimised condition that was historically available at Eurofins Cerep Panlabs. In parallel to C25-140, a reference compound for each of the 87 reactions was concurrently tested to guarantee optimal setting of the assays. In this study the reference compounds performed in the same range as historic Ki values.

[8] = system: U2932 (ABC DLBCL-MYD88 wt); assay: Cell viability in DLBCL, U2932; format: cell-based; conditions: 30 μM added at day 0, 4 and 8; 9 days
Procedure: To determine the effects of C25-140 on MYD88-dependent ABC-DLBCL, we chose the HBL1 (ABC-DLBCL-MYD88 L265P), U2932 (ABC DLBCL-MYD88 wt) and BJAB (GCB DLBCL) cell lines. 1×10^6 cells of each cell line was seeded in 5 ml and treated with 30 μM compound C25-140 (compound 3) or DMSO. The entire experiment was carried out for 9 days. Every day 500 μl were taken and viable cell number was acquired using the ViCEII cell counter (Beckmann Coulter). At days 4 and 8 of the experiment the volume was again adjusted to 5 ml and samples were supplemented with 30 μM compound C25-140 or DMSO. This process was necessary to ensure linear proliferation of DMSO treated cells. All curves of C25-140 treated samples were referred to the corresponding DMSO treated controls.

T1 sequence (Q9Y4K3 50-159 limits assumed, species assumed): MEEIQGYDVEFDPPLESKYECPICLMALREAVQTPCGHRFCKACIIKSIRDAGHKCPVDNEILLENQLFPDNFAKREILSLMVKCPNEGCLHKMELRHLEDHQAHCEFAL

With `Cc1nn(-c2ccc3nnc(C)n3n2)c(C)c1CCC(=O)N1CCC(Cc2ccccc2)CC1` [Compound 3, 1-(4-benzylpiperidin-1-yl)-3-(3,5-dimethyl-1-(3-methyl-[1,2,4]triazolo[4,3-b]pyridazin-6-yl)-1H-pyrazol-4-yl)propan-1-one] the “TRAF6 E3 ligase activity to form poly-ubiquitin chains” value [1] was “dose-dependently diminished”, the “inhibition of ubiquitination cascades, Ubiquitin Profiler panel” value [2] was “None of the reactions is considerably inhibited” and the “cell viability at highest dose” value ([3]; 100 μM, 24 hours) was “toxicity is noticeable”. The “metabolic activity and cell viability” value ([3]; up to 50 μM, 24 hours incubation, MEF, HepG2, Jurkat) was “does not considerably affect”, the “IL-1β-induced target gene expression (ICAM-1, A20 mRNA)” value [4] was “diminished” and the “TNFα induced NF-κB target gene expression (ICAM-1, A20 mRNA)” value ([4]; TNFα) was “also affected”. The “mRNA levels of IL-2 and TNFα” value [5] was “dose-dependently decreased”, the Caco-2 permeability [6] was “good penetration” and the “binding to SafetyScreen87 targets” value [7] was “no significant binding”. The “viability (cell count)” value [8] was “only slightly affected”.
